# Results from patent US4826872A, “Pharmaceutical composition for treatment of cataract” (Takeda Chemical Industries, Ltd., priority 1986, dated 1989).
# Like-named read-outs stand apart in the source and are kept apart here.
# Key:
# [1] = tested on: rabbit lens epithelial cells; assay: Test System I: MDA formed by auto-oxidation of docosahexaenoic acid in culture of lens epithelial cells; format: cell-based; conditions: for Amount of MDA in culture medium: 24 hours, normal 1.5, control 29.2
# Description: (§1) The inhibitory effect of 2-0-octadecylascorbic acid [compound (I-A)]on lens epithelial cells was studied.
# (§2) The lens epithelial cells were obtained from a male white rabbit weighing about 2 kg. Thus, after the […] was sacrificed, the eyeballs were immediately enucleated and subjected to the following aseptic procedures. The eyeballs were washed with Hank's balanced salt solution (pH 7.2), disinfected by 30-second immersion in 80% alcohol and re-washed with the same balanced salt solution. Then, using a small knife, the sclera was cut open from the posterior part of the bulb and the lens was taken out. The retina, vitreous body and the zonule of Zinn were removed. Then, the capsule was punctured and separated from the lens by means of forceps. (The epithelial cells came off with the capsule). The separated capsule was incubated in 0.01% EDTA-0.125% trypsin at 37° C. for 20 minutes After addition of the culture medium mentioned below, the mixture was centrifuged at 1,000 rpm for 2 minutes. By repeating this procedure, the epithelial cells were isolated. These cells were subjected to a few serial passages and used in the experiment. The culture medium was Eagle's medium (MEM) supplemented with 15% bovine fetal serum.
# (§3) The following two oxidation systems were used in the experiment: the system using the cytotoxic effect of lipid peroxidation products produced by auto-oxidation of docosahexaenoic acid as an indicator and the system using the cytotoxic effect of activated oxygen species produced by the xanthine-xanthine oxidase system as an indicator. Thus, the confluent cells in dishes were incubated in the following media for 24 hours and the lipid peroxides in the cultures were determined.
# (§4) (1) Normal: Cultured in MEM only
# (§5) (2) Control: Cultured in MEM supplemented
# with 250 μg/ml of docosahexaenoic
# (3) Drug: Cultured in MEM supplemented
# (§6) The thiobarbituric acid method of Yagi [Anal. Biochem., 95, 351-358 (1979)]was used for Test System I and the method of Nakashima [Chem. Pharm. Bull., 33. 5380-5384 (1985)]and Ohsawa [Anal. Sci., 1, 473-476 (1985)]using 1,3-diphenyl-2-thiobarbituric acid was employed with some modification for Test System II.
# [2] = tested on: rabbit lens epithelial cells; assay: Test System II: MDA formed by activated oxygen species of the xanthine-xanthine oxidase system in culture of lens epithelial cells; format: cell-based; conditions: for Amount of MDA in culture medium: 24 hours, normal 0.005, control 0.134
# Description: as §1, §2, §3, §4, §5
# with 1 mM of xanthine and 0.01
# U/ml of xanthine oxidase
# (3) Drug: Cultured in MEM supplemented with
# 1 mM of xanthine and 0.01 U/ml of
# xanthine oxidase plus the drug.
# as §6
# [3] = tested on: cataract; conditions: cited from earlier work
# [4] = tested on: lens (cataract after streptozocin administration); assay: Slit-lamp observation of progress of cataract in streptozocin-treated rats (Experiment 1); format: in vivo, male S.D. strain rats; conditions: vs control group, lens observed 7-35 days after streptozocin
# Description: Test procedure: 4-week-old male S.D. strain rats were purchased from Shizuoka Prefecture Animals Farmers' Cooperative, grouped by 10 animals after 5 days of preliminary feeding, and subjected to the test. […] To the vitamin E group, tocopherol acetate (50 mg/ml) was given orally in the same way at the dose of […] (400 mg/kg/day). To the control group, tap water was orally given at 200 μl/100 g.
# 0 No opacity is observed in the lens.
# I The surface of the lens is slightly opaque or small vacuoles appear on the equator.
# II Vacuoles increase in number and distribute over the cortex while fusing with each other.
# III Vacuoles distributed over the most part of the cortex begin to disappear.
# IV Most vacuoles have disappeared, and the whole cortex becomes opaque and translucent.
# V The nucleoplasm becomes opaque.
# VI The whole lens becomes white turbid.
# [5] = tested on: cataract; conditions: instillation; many specialists doubtful; cited from earlier work
# [6] = cited from Mechanism of Cataract Formation in the Human Lens (1981)
structure (smiles),measurement,setting,value
"Cc1c(C)c2c(c(C)c1O)CCC(C)(CCCC(C)CCCC(C)CCCC(C)C)O2 (racemic) [DL-α-Tocopherol, DL-α-tocopherol, reference compound]",Amount of MDA in culture medium,[1]; drug 125 μg/ml,4.2 ± 0.1 n mole/ml
same,Concentration for the same effect relative to compound (I-A),[1]; multiple of the concentration of compound (I-A),about 50 times
same,Amount of MDA in culture medium,[2]; drug 10 μg/ml,0.009 ± 0.011 n mole/ml
COc1cccc2c1C(=O)c1c(O)c3c(c(O)c1C2=O)C[C@@](O)(C(=O)CO)C[C@@H]3O[C@H]1C[C@H](N)[C@H](O)[C@H](C)O1 [Adriamycin],Induction of cataract,[3]; [6],induce cataract
"CCCCCCCCCCCCCCCCCCOC1=C(O)C(C(O)CO)OC1=O (stereo not shown) [Compound (I-A), 2-0-octadecylascorbic acid]",Delay of progress of cataract (lens stage by slit lamp),"[4]; oral, 100 mg/kg/day first two days then 40 mg/kg/day, Kruskal-Wallis H-test",delayed significantly the progress of cataract
same,Amount of MDA in culture medium,[1]; drug 2.5 μg/ml,6.5 ± 0.1 n mole/ml
same,Amount of MDA in culture medium,[1]; drug 5 μg/ml,5.8 ± 0.7 n mole/ml
same,Amount of MDA in culture medium,[1]; drug 10 μg/ml,10.3 ± 0.6 n mole/ml
same,Inhibition of formation of MDA (in words),[1]; higher concentrations,inhibitory effect was attenuated
same,Inhibition of formation of MDA (in words),[1]; low concentrations (<5 μg/ml),strongly inhibit the formation of MDA
same,Effect relative to DL-α-tocopherol (in words),[2],as effective as DL-α-tocopherol
same,Inhibition of MDA (in words),[2],substantially complete inhibition of MDA
same,Amount of MDA in culture medium,[2]; drug 2 μg/ml,0.024 ± 0.015 n mole/ml
same,Amount of MDA in culture medium,[2]; drug 10 μg/ml,0.016 ± 0.014 n mole/ml
same,Amount of MDA in culture medium,[2]; drug 50 μg/ml,0.001 ± 0.001 n mole/ml
Nc1nc[nH]n1 [amizole],Induction of cataract,[3]; in vivo,induce cataract
N[C@@H](CCC(=O)N[C@@H](CS)C(=O)NCC(=O)O)C(=O)O [glutathione],Effectiveness for treatment of cataract,[5],effective to some extent
CN(N=O)C(=O)N[C@@H](C=O)[C@@H](O)[C@H](O)[C@H](O)CO [streptozocin],Induction of cataract,[3]; [6],induce cataract
"CC(=O)Oc1c(C)c(C)c2c(c1C)CCC(C)(CCC[C@H](C)CCC[C@H](C)CCCC(C)C)O2 (stereo partly shown) [vitamin E, tocopherol acetate, reference compound]",Delay of progress of cataract (lens stage by slit lamp),[4]; oral tocopherol acetate 400 mg/kg/day,did not delay the progress of cataract
